Results published in PMC5354814, “In silico and in vitro drug screening identifies new therapeutic approaches for Ewing sarcoma” (Oncotarget, 2016).

Legend:
[1] = Formulation and PK studies of auranofin (blood gold, ICPMS); type: in vivo, BALB/c mice
Procedure: Ridaura® (auranofin) is typically delivered orally (capsules containing 3 mg auranofin) and has been repurposed in several clinical trials with limited results (i.e., clinicaltrials.gov identifier: NCT01419691, NCT02126527, and NCT02126527). […] Additionally, the ability to increase the dose of auranofin to achieve higher blood concentrations of gold was limited by dose-limiting gastrointestinal side effects (diarrhea, loose stools, nausea, vomiting and abdominal cramps). For our studies we dosed BALB/c mice orally at 10 mg/Kg with different formulations of auranofin suspensions prepared in 0.5% hydroxypropyl methyl cellulose to help assure dose uniformity. We compared the ground contents of Ridaura® capsules, the ground pure auranofin drug substance, auranofin suspension containing 0.5% sodium lauryl sulfate (a surfactant), auranofin suspensions with the pH adjusted to pH = 1, 4 and 7, auranofin suspension dosed into fasted versus high fat diet mice and finally a solution of auranofin prepared in 5% dimethyl sulfoxide (DMSO) with a pH = 1. Pharmacokinetic studies were conducted on all of these formulation variations. Blood samples from 3 mice at each time point (0, 1, 2, 4, 8, 12, 24, 48 and 96 hours) and the whole blood was assayed by ICPMS for gold.
We additionally studied dose accumulation of the gold by comparing a formulation of Ridaura® capsule contents as described above and dosing at 10 mg/Kg single dose versus dosing the mice once daily for 5 days. The PK study compared the gold content in whole blood samples as described above for the single dose versus the gold content in whole blood samples from the multidose arm with whole blood collected at the end of each 24 hour dosing period before the next dose (24, 48, 72, 96 and 120 hours) and then whole blood collected every 24 hours for 5 additional days (144, 168, 192, 216 and 240 hours) and assayed for gold content. The results of these formulation and PK studies are shown in Supplementary Table S2.
These findings led us to develop and assess injectable (i.v. and i.p.) formulations of auranofin. By defining maximum tolerated dose (MTD) following i.v. and i.p. administration of solution and suspension formulations of auranofin, our intent was to evaluate auranofin alone and in combination with ganetespib at MTD in mouse xenograft studies using the more convenient i.p. route of administration. Following administration of the solution formulation of auranofin i.v. and i.p., the maximum tolerated dose was estimated at 1 mg/kg and 6 mg/kg, respectively. Following a single i.p. suspension dose of auranofin, the maximum tolerated dose was 16 mg/kg. This dose was reduced to 12 mg/kg and dose tolerance was evaluated after 5 daily doses of auranofin suspension i.p. to determine the effects of the accumulation of gold in the blood due to the slow elimination of gold. Based on the i.p. suspension dose tolerance studies, the auranofin suspension formulation and dose level of 12 mg/kg was selected for evaluation in xenograft mouse studies.

human lymphocyte = test system: human lymphocyte; design: method as in ref 19 (a number printed in a supplementary file, which may have a reference list of its own: not looked up in the article's list); details: 0.1 - 1.0 µg auranofin/mL; cited from earlier work
ovarian cancer = test system: ovarian cancer; design: method as in PMID 25502607; details: 3 mg auranofin orally twice per day, 10 patients, 95% CI: 1.3–3.8; cited from earlier work
[2] = design: method as in ref 19 (a number printed in a supplementary file, which may have a reference list of its own: not looked up in the article's list); details: dogs, 0.6 - 1.2 mg auranofin/kg p.o.; cited from earlier work
platelet = test system: platelet; design: method as in ref 19 (a number printed in a supplementary file, which may have a reference list of its own: not looked up in the article's list); details: 10 µg/mL; cited from earlier work
SK-ES-1 = experiment: In vitro high-throughput screen of FDA-approved drug library (CellTiter-Glo); type: cell-based; details: 1 μmol/L drug, 72 hours
Hs 919.T. = experiment: as above; type: cell-based; details: 1 μmol/L drug, 72 hours, control cell line
A673 = experiment: as above; type: cell-based; details: 1 μmol/L drug, 72 hours
RD-ES = experiment: as above; type: cell-based; details: 1 μmol/L drug, 72 hours
[3] = design: method as in ref 19 (a number printed in a supplementary file, which may have a reference list of its own: not looked up in the article's list); details: 2.5 µg/mL; cited from earlier work
human lymphocytes = test system: human lymphocytes; design: method as in ref 19 (a number printed in a supplementary file, which may have a reference list of its own: not looked up in the article's list); details: 1.25 µg auranofin/mL; cited from earlier work
[4] = design: method as in ref 19 (a number printed in a supplementary file, which may have a reference list of its own: not looked up in the article's list); details: 5 and 10 mg gold/kg p.o.; cited from earlier work
[5] = test system: human neutrophil and monocyte; design: method as in ref 19 (a number printed in a supplementary file, which may have a reference list of its own: not looked up in the article's list); details: 0.1 - 1.0 µg auranofin/mL; cited from earlier work
[6] = mice, 18 months, cited from earlier work
[7] = Suspension, single 10 mg/kg Oral

With `CC(=O)OC[C@H]1O[C@@H]([S-])[C@H](OC(C)=O)[C@@H](OC(C)=O)[C@@H]1OC(C)=O.CCP(CC)CC.[Au+]` [Auranofin, auranofin] the Cmax ([1]; Solution, five daily 4 mg/kg IP) was 10384 ng/mL, the “AUC (0 to ∞)” value ([1]; Solution, single 4 mg/kg IP) was 210.336 µg·h/mL and the Cmax ([1]; Solution, single 4 mg/kg IP) was 4071 ng/mL. The “Half Life” value ([1]; Solution, single 4 mg/kg IP) was 29.7 h, the Tmax ([1]; Solution, single 4 mg/kg IP) was 1 h and the Cmax ([1]; Suspension, five daily 10 mg/kg Oral) was 5780 ng/mL. For the same compound, the “AUC (0 to ∞)” value [1, 7] was 187.7 µg·h/mL, the Cmax [1, 7] was 3680 ng/mL and the “Half Life” value [1, 7] was 28.4 h. For the same compound, the Tmax [1, 7] was 24 h, the “AUC (0 to ∞)” value ([1]; Suspension, single 12 mg/kg IP) was 550.846 µg·h/mL and the Cmax ([1]; Suspension, single 12 mg/kg IP) was 13068 ng/mL. The “Half Life” value ([1]; Suspension, single 12 mg/kg IP) was 26.4 h, the Tmax ([1]; Suspension, single 12 mg/kg IP) was 1 h and the “effect of oral formulation variations on amount of gold absorbed” value ([1]; oral 10 mg/kg, various suspensions and a solution) was “unable to alter the amount of auranofin (gold) absorbed”. The phytohemagglutinin-induced mitogenesis (human lymphocyte) was “inhibited”, the “median PFS” value (ovarian cancer) was 2.8 months and the antidiuretic effect [2] was “not in dogs”. The “epinephrine-, ADP-, or collagen-induced platelet aggregation” value (platelet) was “potent”, the “% Inhibition SK-ES-1” value (SK-ES-1) was 99% and the “% Inhibition Hs 919.T.” value (Hs 919.T.) was less than 50%. For the same compound, the “% Inhibition A673” value (A673) was 98%, the “% Inhibition RD-ES” value (RD-ES) was 100% and the “pokeweed mitogen-induced immunoglobulin production” value [3] was “inhibited”. For the same compound, the “ADCC of human lymphocytes” value (human lymphocytes) was “reduced”, the “low-grade oxazolone-induced contact sensitivity” value [4] was “stimulated” and the chemotaxis [5] was “inhibited”. The “instances of tumors above controls” value ([6]; oral 1, 3 and 9 mg/kg/day) was “no statistica ll y significant increase” and the tumor findings ([6]; oral 1, 3 and 6-9 mg/kg/day) was “increase in benign”.
